Results: US12440493B2, “Combination therapy for treating cancer comprising substituted piperazines” (Eli Lilly and Company, priority 2020, dated 2025)
Where “and” joins values, the source holds several entries; their conditions need not be identical. Equal entries are not always repeated.

Experiments:
[1] = system: IDH1(R132H) primary human AML cells; experiment: AML clearance in peripheral blood (flow cytometry, % hCD33+hCD45+ of total white cells), human AML PDx models in NSG mice; type: in vivo; conditions: for AML clearance (% hCD33 + hCD45+ (of total white cells)): 50 mg/kg Midostaurin, QD, PO, each value one animal, 50 mg/kg; for % peripheral blood AML cells (treatment group value): group F: midostaurin (50 mg/kg)
Description: (§1) Compounds and Formulation. For in vivo studies, each test article is prepared at an appropriate concentration with vehicle. […] Compound A is prepared fresh at the appropriate concentrations with vehicle every 7 days and stored at 4° C. between doses. […] Cytarabine is prepared fresh weekly by dilution with sterile saline from stock solution of Cytarabine (injection 20 mg/mL, (Pfizer injectables')). Azacitidine (Sigma, Lot #MKBR7212) is formulated in sterile water and is prepared fresh daily immediately before dosing. In vivo human AML PDx models. […] Two models are used in the studies: […] As needed, splenocytes from tumor-bearing mice are used to propagate and expand the models, as described. Each test article is prepared as described above at an appropriate concentration with vehicle to give animals the doses tested in this study at a dosing volume of 10 μL/gram body weight. Mice receiving Compound A (PO, QD) are treated at the indicated doses for the duration of the study. The combination agents are dosed as follows: […] Treated mice are assessed in comparison to vehicle treated and naïve (non-tumor bearing) control mice. Body weight is recorded twice per week. […] AML PDx model propagation. […] Spleens are processed and splenocytes isolated as described below. Two hundred μL per subject of the splenocyte prep is injected IV (intravenous, tail vein) into recipient NSG mice. […] Once engraftment is confirmed, the mice are monitored biweekly until ready to be put on study. […] Submandibular blood is collected. Spleen/Splenocyte Processing and Prep. After excision, a spleen is weighed, and […] is placed in a standard sterile 15 mL polypropylene conical tube containing PBS, and placed on ice. […] The spleen is placed in ice cold sterile PBS in a 15 mL collection tube. The spleen is removed from the collection tube and placed in a 100 micron 50 mL conical tube cell strainer (BD Falcon #352360). The spleen is processed by gentle rubbing of the spleen tissue against the surface of the cell strainer with the end of a 5 mL syringe plunger in a circular motion. The surface of the strainer is rinsed with 10 mL room temperature sterile DPBS (HyClone SH30028) 3 times during the process. […] The cell pellet is collected by centrifugation (300×g) and washed three times with 30 mL sterile DPBS. The cells are counted and resuspended in DPBS at the desired implant concentration. Bone Marrow Collection. […] Flow cytometry analysis of human white cells. Submandibular blood samples from in vivo studies are collected. Fluor-conjugated antibody stains are added according to the manufacturer's instructions (anti-human CD33-PE (clone WM53, BD Cat #555450), anti-human CD14-APC (clone MφpP9, BD Cat #340436), anti-human CD15-V450 (clone HI98, BD Cat #561584), anti-human CD117-BV421 (clone YB5.B8, BD Cat #562434), anti-human […]7 (clone ICRF44, BD Cat #557754), anti-human […]7 (clone HI30, BD Cat #557748), and anti-human CD3-FITC (clone SK7, BD Cat #340542)). The samples are incubated for 30 minutes at room temperature, protected from light. After the incubation, 1.5 mL 1×BD Lyse/Fix (37° C., (BD #558049)) is added to each sample and incubated for 12 minutes at room temperature. The tubes are centrifuged at 300×g for 7 minutes. BD Lyse/Fix solution is aspirated and the cell pellet washed with stain/wash buffer 3 times (1 wash step consisted of: pellet resuspended in 3 mL stain/wash buffer, centrifuged at 300×g, aspirated wash). Fixed cells are then resuspended in 300 to 400 μL stain/wash buffer. Samples are analyzed on a Becton Dickinson FACSVerse Flow cytometer (Cat #651155 Serial #Z6511550447) using standard flow cytometry principles and techniques. Samples are analyzed on the same day as they are stained and fixed. Population gating and data analysis of percent population are performed in the FACSuite software on the FACSVerse cytometer. Percent population values from the data analysis are plotted in Graphpad Prism or in JMP13. […]

[2] = system: IDH1(R132H) primary human AML cells; experiment: AML cell differentiation in blood (flow cytometry, % hCD33+hCD11b+ of hCD45+ cells), human AML PDx models in NSG mice; type: in vivo; conditions: for AML cell differentiation (% hCD33 + hCD11b+ (of hCD45+ cells)): F: 50 mg/kg Midostaurin, QD, PO, one animal
Description: as §1

[3] = system: IDH1(R132H) primary human AML cells; experiment: Bone marrow AML clearance (flow cytometry), human AML PDx models in NSG mice; type: in vivo
Description: as §1

2-HG production = experiment: Plasma 2-HG inhibition (LC-MS metabolite analysis in plasma of AML PDx model); type: in vivo, human
[4] = 50 mg/kg Midostaurin, QD, PO, each line one animal
[5] = plasma, F: 50 mg/kg Midostaurin, QD, PO, one line per animal

CO[C@@H]1[C@H](N(C)C(=O)c2ccccc2)C[C@H]2O[C@]1(C)n1c3ccccc3c3c4c(c5c6ccccc6n2c5c31)C(=O)NC4 [Midostaurin, reference compound]
AML clearance (% hCD33 + hCD45+ (of total white cells)) ([1]; Treatment day 7): 10.05% and 3.62% and 8.05% and 11.35% and 2.53%
AML clearance (% hCD33 + hCD45+ (of total white cells)) ([1]; Treatment day 23): 6.24% and 3.75% and 7.09% and 2.63% and 0.84%
AML clearance (% hCD33 + hCD45+ (of total white cells)) ([1]; Treatment day 36): 3.7% and 1.83% and 4.68% and 2.15% and 0.28%
AML clearance (% hCD33 + hCD45+ (of total white cells)) ([1]; Treatment day 50): 2.21% and 0.76% and 3.72% and 1.29% and 0.21%
AML clearance (% hCD33 + hCD45+ (of total white cells)) ([1]; Treatment day 64): 7.01% and 2.16% and 3.93% and 4.84% and 0.18%
AML clearance (% hCD33 + hCD45+ (of total white cells)) ([1]; Treatment day 78): 18.03% and 2.94% and 8.24% and 14.27% and 0.14%
AML clearance (% hCD33 + hCD45+ (of total white cells)) ([1]; Treatment day 92): 35.38% and 4.09% and 14.55% and 30.48% and 0.86%
AML clearance (% hCD33 + hCD45+ (of total white cells)) ([1]; Treatment day −8): 7.94% and 8.17% and 6.23% and 2.27%
% peripheral blood AML cells (treatment group value) ([1]; day 50, vehicle 32%): 1.1%
% peripheral blood AML cells (treatment group value) ([1]; day 64, vehicle 67%): 2.2%
% peripheral blood AML cells (treatment group value) ([1]; day 78, vehicle 129%): 3.9%
AML cell differentiation (% hCD33 + hCD11b+ (of hCD45+ cells)) ([2]; treatment day 7): 25.48% and 12.53% and 9% and 38.3% and 27.14%
AML cell differentiation (% hCD33 + hCD11b+ (of hCD45+ cells)) ([2]; treatment day 23): 25.27% and 17.13% and 9.1% and 36.3% and 25.56%
AML cell differentiation (% hCD33 + hCD11b+ (of hCD45+ cells)) ([2]; treatment day 36): 45.81% and 34.03% and 21.16% and 47.53% and 25.64%
AML cell differentiation (% hCD33 + hCD11b+ (of hCD45+ cells)) ([2]; treatment day 50): 43.86% and 28.75% and 20.78% and 40% and 30.3%
AML cell differentiation (% hCD33 + hCD11b+ (of hCD45+ cells)) ([2]; treatment day −8 (before treatment)): 19.58% and 13.81% and 18.12% and 19.57%
% AML cell differentiation (treatment group value) ([2]; day 50, group F: midostaurin (50 mg/kg), vehicle 28%): 33%
Bone Marrow AML Clearance: % hCD33 + hCD45+ (% of white cells) [3, 4]: 51.84% and 6.3% and 22.34% and 59.24% and 25.84%
Bone Marrow AML Clearance: % hCD45+ (% of white cells) [3, 4]: 51.3% and 6.25% and 22.22% and 58.42% and 25.71%
% human AML cells in bone marrow (of white cells; lower = more clearance) ([3]; group F: midostaurin (50 mg/kg), vehicle 86%): 26%
% plasma 2-HG (treatment group value) (2-HG production; group F: midostaurin (50 mg/kg), vehicle 100%): 70%
2-HG (2-HG production; [5]): 14.919 µM and 11.402 µM and 7.494 µM and 21.55 µM and 10.075 µM
Naive Subtracted 2-HG (2-HG production; [5]): 12.51 µM and 8.993 µM and 5.085 µM and 19.141 µM and 7.666 µM
